According to the NIST ThermoML archive (doi:10.1016/j.jct.2014.07.018):

Experiment: molar heat capacity at constant pressure
Conditions: 101.33 kPa, Vacuum adiabatic calorimetry

CCCCn1cc[n+](C)c1.[I-] [1-butyl-3-methylimidazolium iodide]
Conditions | molar heat capacity at constant pressure [J/K/mol]
168.81 K, Crystal | 158.7
169.51 K, Crystal | 159.1
170 K, Crystal | 159.4
170 K, Glass | 172.3
170.6 K, Glass | 172.7
170.88 K, Crystal | 159.9
171.57 K, Crystal | 160.3
172.61 K, Glass | 174
172.94 K, Crystal | 161.1
173.64 K, Crystal | 161.5
174.62 K, Glass | 175.4
175.01 K, Crystal | 162.3
175.71 K, Crystal | 162.7
176.63 K, Glass | 176.8
177.07 K, Crystal | 163.5
177.77 K, Crystal | 163.9
178.63 K, Glass | 178.2
179.14 K, Crystal | 164.8
179.83 K, Crystal | 165.2
180 K, Crystal | 165.3
180 K, Glass | 179.1
180.64 K, Glass | 179.6
181.2 K, Crystal | 166.1
181.89 K, Crystal | 166.6
182.64 K, Glass | 181
183.26 K, Crystal | 167.6
183.95 K, Crystal | 168.1
184.64 K, Glass | 182.6
185.31 K, Crystal | 169.1
186 K, Crystal | 169.6
186.65 K, Glass | 184.1
187.36 K, Crystal | 170.6
188.05 K, Crystal | 171.1
188.65 K, Glass | 185.7
189.41 K, Crystal | 171.9
190 K, Crystal | 172.3
190 K, Glass | 186.7
190.1 K, Crystal | 172.4
190.65 K, Glass | 187.2
191.46 K, Crystal | 173.3
192.15 K, Crystal | 173.7
192.65 K, Glass | 188.9
193.51 K, Crystal | 174.5
194.2 K, Crystal | 174.9
194.65 K, Glass | 191
195.56 K, Crystal | 175.7
196.24 K, Crystal | 176.1
196.66 K, Glass | 193
197.6 K, Crystal | 176.9
198.29 K, Crystal | 177.3
198.66 K, Glass | 195.4
199.65 K, Crystal | 178.1
200 K, Crystal | 178.3
200 K, Glass | 197.5
200.33 K, Crystal | 178.5
200.66 K, Glass | 198.5
201.69 K, Crystal | 179.3
202.37 K, Crystal | 179.8
202.93 K, Glass | 204.1
203.73 K, Crystal | 180.5
204.41 K, Crystal | 180.9
205.45 K, Glass | 214.4
205.77 K, Crystal | 181.8
206.45 K, Crystal | 182.2
207.77 K, Liquid | 247.8
207.8 K, Crystal | 183
208.48 K, Crystal | 183.4
209.84 K, Crystal | 184.3
209.86 K, Liquid | 287.7
210 K, Crystal | 184.3
210 K, Liquid | 287.6
210.52 K, Crystal | 184.6
211.87 K, Crystal | 185.5
212.03 K, Liquid | 285.8
212.55 K, Crystal | 185.9
213.91 K, Crystal | 186.8
214.19 K, Liquid | 286.4
214.58 K, Crystal | 187.2
215.94 K, Crystal | 188.1
216.37 K, Liquid | 286.6
216.61 K, Crystal | 188.6
217.97 K, Crystal | 189.5
218.54 K, Liquid | 287.1
218.63 K, Crystal | 190.1
219.99 K, Crystal | 191
220 K, Crystal | 191
220 K, Liquid | 287.3
220.66 K, Crystal | 191.6
220.72 K, Liquid | 287.4
222.01 K, Crystal | 192.5
222.11 K, Liquid | 287.7
222.67 K, Crystal | 193
222.9 K, Liquid | 287.9
224.03 K, Crystal | 194
224.39 K, Liquid | 288.2
224.69 K, Crystal | 194.5
225.09 K, Liquid | 288.5
226.04 K, Crystal | 195.5
226.56 K, Liquid | 288.5
226.7 K, Crystal | 196
226.71 K, Liquid | 288.5
227.28 K, Liquid | 288.7
227.61 K, Crystal | 196.7
228.05 K, Crystal | 197.1
228.71 K, Crystal | 197.5
228.74 K, Liquid | 289
228.79 K, Liquid | 289
229.47 K, Liquid | 289.3
229.61 K, Crystal | 198.3
230 K, Crystal | 198.5
230 K, Liquid | 289.4
230.06 K, Crystal | 198.5
230.71 K, Crystal | 198.9
230.77 K, Liquid | 289.5
230.93 K, Liquid | 289.5
231.61 K, Crystal | 199.7
231.66 K, Liquid | 289.8
232.06 K, Crystal | 200
232.71 K, Crystal | 200.6
232.76 K, Liquid | 289.8
233.11 K, Liquid | 290.1
233.61 K, Crystal | 201.3
233.72 K, Liquid | 290.1
233.86 K, Liquid | 290.3
234.06 K, Crystal | 201.7
234.71 K, Crystal | 202
234.74 K, Liquid | 290.3
235.3 K, Liquid | 290.6
235.61 K, Crystal | 202.8
235.72 K, Liquid | 290.6
236.05 K, Crystal | 203.2
236.05 K, Liquid | 290.9
236.7 K, Crystal | 203.6
236.72 K, Liquid | 290.9
237.48 K, Liquid | 291.1
237.6 K, Crystal | 204.3
237.71 K, Liquid | 291.1
238.04 K, Crystal | 204.8
238.25 K, Liquid | 291.4
238.69 K, Crystal | 205.3
238.71 K, Liquid | 291.4
239.6 K, Crystal | 205.9
239.67 K, Liquid | 291.7
239.7 K, Liquid | 291.7
240 K, Crystal | 206.3
240 K, Liquid | 291.7
240.03 K, Crystal | 206.3
240.46 K, Liquid | 291.9
240.67 K, Crystal | 206.7
240.69 K, Liquid | 291.9
241.59 K, Crystal | 207.5
241.7 K, Liquid | 292.2
241.85 K, Liquid | 292.2
242.01 K, Crystal | 208
242.65 K, Crystal | 208.4
242.68 K, Liquid | 292.5
243.58 K, Crystal | 209.1
243.69 K, Liquid | 292.7
243.99 K, Crystal | 209.6
244.04 K, Liquid | 292.7
244.63 K, Crystal | 210
244.67 K, Liquid | 293
245.57 K, Crystal | 210.8
245.96 K, Crystal | 211.2
246.6 K, Crystal | 211.6
247.55 K, Crystal | 212.5
247.93 K, Crystal | 212.9
248.56 K, Crystal | 213.4
249.54 K, Crystal | 214.3
249.7 K, Liquid | 294.3
250 K, Crystal | 214.6
250 K, Liquid | 294.4
250.52 K, Crystal | 215.1
251.69 K, Liquid | 294.9
252.54 K, Crystal | 217.2
253.58 K, Liquid | 295.4
254.59 K, Crystal | 219.4
255.48 K, Liquid | 295.9
256.64 K, Crystal | 221.7
257.37 K, Liquid | 296.5
258.69 K, Crystal | 224.2
259.26 K, Liquid | 297.3
260 K, Crystal | 223.4
260 K, Liquid | 297.4
260.73 K, Crystal | 227
261.15 K, Liquid | 297.8
262.75 K, Crystal | 230.3
263.05 K, Liquid | 298.3
264.77 K, Crystal | 234
264.94 K, Liquid | 298.9
266.78 K, Crystal | 238.1
266.84 K, Liquid | 299.7
267.43 K, Liquid | 299.7
268.74 K, Liquid | 300.2
268.77 K, Crystal | 243.1
269.42 K, Liquid | 300.5
270 K, Crystal | 232.6
270 K, Liquid | 300.6
270.64 K, Liquid | 300.7
270.74 K, Crystal | 249
271.32 K, Liquid | 301
272.7 K, Crystal | 256.2
273.22 K, Liquid | 301.5
274.63 K, Crystal | 266.1
275.12 K, Liquid | 302.3
276.52 K, Crystal | 280.2
277.02 K, Liquid | 302.9
278.36 K, Crystal | 295.7
278.92 K, Liquid | 303.4
280 K, Crystal | 242.3
280 K, Liquid | 303.8
280.15 K, Crystal | 317.2
280.82 K, Liquid | 303.9
281.86 K, Crystal | 349.7
282.72 K, Liquid | 304.7
283.46 K, Crystal | 398.1
284.62 K, Liquid | 305.2
284.92 K, Crystal | 473.4
286.2 K, Crystal | 587.3
286.52 K, Liquid | 306
287.29 K, Crystal | 773.4
288.17 K, Crystal | 1041
288.42 K, Liquid | 306.6
288.86 K, Crystal | 1421
289.4 K, Crystal | 1917
290 K, Crystal | 252.5
290 K, Liquid | 307.1
290.32 K, Liquid | 307.1
291.92 K, Crystal | 254.5
291.92 K, Liquid | 307.8
292.23 K, Liquid | 307.9
293.86 K, Liquid | 308.4
294.13 K, Liquid | 308.4
294.32 K, Liquid | 308.7
295.68 K, Liquid | 309
296.03 K, Liquid | 309.2
296.1 K, Liquid | 309.2
297.5 K, Liquid | 309.8
297.89 K, Liquid | 309.8
297.93 K, Liquid | 309.8
298.15 K, Liquid | 309.9
299.84 K, Liquid | 310.6
300 K, Liquid | 310.5
301.74 K, Liquid | 311.1
303.65 K, Liquid | 311.9
305.55 K, Liquid | 312.4
307.45 K, Liquid | 313.2
309.36 K, Liquid | 313.8
310 K, Liquid | 314.1
311.26 K, Liquid | 314.6
313.17 K, Liquid | 315.1
315.07 K, Liquid | 315.9
316.98 K, Liquid | 316.7
318.89 K, Liquid | 317.2
320 K, Liquid | 317.6
320.79 K, Liquid | 318
322.7 K, Liquid | 318.6
324.6 K, Liquid | 319.4
326.51 K, Liquid | 320.1
328.41 K, Liquid | 320.7
330 K, Liquid | 321.3
330.32 K, Liquid | 321.5
332.22 K, Liquid | 322
334.13 K, Liquid | 322.8
336.03 K, Liquid | 323.6
337.93 K, Liquid | 324.4
339.84 K, Liquid | 324.9
340 K, Liquid | 325.1
341.74 K, Liquid | 325.7
343.65 K, Liquid | 326.5
345.55 K, Liquid | 327.3
347.47 K, Liquid | 327.9
349.37 K, Liquid | 328.7
350 K, Liquid | 328.9
351.28 K, Liquid | 329.5
353.19 K, Liquid | 330.3
355.09 K, Liquid | 330.8
357 K, Liquid | 331.6
358.91 K, Liquid | 332.4
360 K, Liquid | 332.9
360.81 K, Liquid | 333.2
362.72 K, Liquid | 334
364.62 K, Liquid | 334.8
366.52 K, Liquid | 335.3
368.43 K, Liquid | 336.4
370 K, Liquid | 336.9
